Measurements reported in patent US20120053053A1, “PYRIMIDINE DERIVATIVES AND THEIR USE AS HERBICIDES” (SYNGENTA CROP PROTECTION, LLC, priority 2009, published 2012).

Assays:
Format in all cases: in vivo
[1] = system: Amaranthus retoflexus (AMARE); assay: Pre-emergence biological efficacy (percentage damage); conditions: Amaranthus retroflexus, 312 h, dose 1,000 g/ha, evaluated after 13 days, 100=total damage, 0=no damage
Summary of the method: (§1)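 Pre-emergence test: seeds sown in standard soil in pots, kept one day in a glasshouse (24/16° C. day/night, 14 h light, 65% humidity), then sprayed at 250 or 1000 g/ha from an acetone/water (50:50) formulation with 0.5% Tween 20. Damage scored after 13 days (0 = none, 100 = total).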

[2] = system: Echinochloa crus-galli (ECHCG); assay: as above; conditions: Echinochloa crus-galli, 312 h, dose 1,000 g/ha, evaluated after 13 days, 100=total damage, 0=no damage
Summary of the method: as §1

Solanum nigrum (SOLNI) [3] = assay: as above; conditions: Solanum nigrum, 312 h, dose 1,000 g/ha, evaluated after 13 days, 100=total damage, 0=no damage
Summary of the method: as §1

Setaria faberi (SETFA) [4] = assay: as above; conditions: Setaria faberi, 312 h, dose 1,000 g/ha, evaluated after 13 days, 100=total damage, 0=no damage
Summary of the method: as §1

[5] = system: Ipomea hederaceae (IPOHE); assay: as above; conditions: Ipomoea hederacea, 312 h, dose 1,000 g/ha, evaluated after 13 days, 100=total damage, 0=no damage
Summary of the method: as §1

[6] = system: Alopecurus myosuroides (ALOMY); assay: as above; conditions: Alopecurus myosuroides, 312 h, dose 1,000 g/ha, evaluated after 13 days, 100=total damage, 0=no damage
Summary of the method: as §1

[7] = system: Amaranthus retoflexus (AMARE); assay: Post-emergence biological efficacy (percentage damage); conditions: Amaranthus retroflexus, 312 h, dose 1,000 g/ha, evaluated after 13 days, 100=total damage, 0=no damage
Summary of the method: (§2)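 Post-emergence glasshouse test: plants sprayed 8 days after sowing (24/16 °C day/night, 14 h light, 65% humidity) at 250 or 1000 g/ha, formulated in acetone/water 50:50 with 0.5% Tween 20. Damage scored visually 13 days after treatment on a 0–100 scale (100 = total damage).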

[8] = system: Echinochloa crus-galli (ECHCG); assay: as above; conditions: Echinochloa crus-galli, 312 h, dose 1,000 g/ha, evaluated after 13 days, 100=total damage, 0=no damage
Summary of the method: as §2

Solanum nigrum (SOLNI) [9] = assay: as above; conditions: Solanum nigrum, 312 h, dose 1,000 g/ha, evaluated after 13 days, 100=total damage, 0=no damage
Summary of the method: as §2

Setaria faberi (SETFA) [10] = assay: as above; conditions: Setaria faberi, 312 h, dose 1,000 g/ha, evaluated after 13 days, 100=total damage, 0=no damage
Summary of the method: as §2

[11] = system: Ipomea hederaceae (IPOHE); assay: as above; conditions: Ipomoea hederacea, 312 h, dose 1,000 g/ha, evaluated after 13 days, 100=total damage, 0=no damage
Summary of the method: as §2

[12] = system: Alopecurus myosuroides (ALOMY); assay: as above; conditions: Alopecurus myosuroides, 312 h, dose 1,000 g/ha, evaluated after 13 days, 100=total damage, 0=no damage
Summary of the method: as §2

Q: What does the source list for `C=Cc1c(N)nc(-c2ccc(Cl)cc2F)nc1C(=O)OC` [Compound 15-61, 4-Amino-2-(4-chloro-2-fluorophenyl)-5-ethenyl-6-methoxycarbonyl-pyrimidine]?
A: pest or weed control at 1000 g/ha [1]: 100%; pest or weed control at 1000 g/ha [2]: 70%; pest or weed control at 1000 g/ha (Solanum nigrum (SOLNI) [3]): 100%; pest or weed control at 1000 g/ha (Setaria faberi (SETFA) [4]): 70%; pest or weed control at 1000 g/ha [5]: 100%; pest or weed control at 1000 g/ha [6]: 80%; pest or weed control at 1000 g/ha [7]: 100%; pest or weed control at 1000 g/ha [8]: 70%; pest or weed control at 1000 g/ha (Solanum nigrum (SOLNI) [9]): 100%; pest or weed control at 1000 g/ha (Setaria faberi (SETFA) [10]): 70%; pest or weed control at 1000 g/ha [11]: 80%; pest or weed control at 1000 g/ha [12]: 90%

Q: How did the pest or weed control at 1000 g/ha [1] turn out when `C=Cc1c(N)nc(-c2ccc(Cl)c(F)c2)nc1C(=O)OC` [Compound 19-61, 4-Amino-2-(4-chloro-3-fluorophenyl)-5-ethenyl-6-methoxycarbonyl-pyrimidine] was run?
A: 100%

Q: What about the pest or weed control at 1000 g/ha [2] of the same compound?
A: 70%

Q: What about the pest or weed control at 1000 g/ha (Solanum nigrum (SOLNI) [3]) of the same compound?
A: 100%

Q: And the pest or weed control at 1000 g/ha (Setaria faberi (SETFA) [4])?
A: 30%

Q: What about the pest or weed control at 1000 g/ha [5] of the same compound?
A: 100%

Q: What about the pest or weed control at 1000 g/ha [6] of the same compound?
A: 50%

Q: And the pest or weed control at 1000 g/ha [7]?
A: 100%

Q: What about the pest or weed control at 1000 g/ha [8] of the same compound?
A: 60%

Q: What about the pest or weed control at 1000 g/ha (Solanum nigrum (SOLNI) [9]) of the same compound?
A: 100%

Q: What about the pest or weed control at 1000 g/ha (Setaria faberi (SETFA) [10]) of the same compound?
A: 40%

Q: What about the pest or weed control at 1000 g/ha [11] of the same compound?
A: 100%

Q: What about the pest or weed control at 1000 g/ha [12] of the same compound?
A: 40%

Q: With `C=Cc1c(N)nc(-c2ccc(Cl)c(OC)c2)nc1C(=O)OC` [Compound 26-61, 4-Amino-2-(4-chloro-3-methoxyphenyl)-5-ethenyl-6-methoxycarbonyl-pyrimidine] as the compound, how does the pest or weed control at 1000 g/ha [1] read?
A: 100%

Q: What about the pest or weed control at 1000 g/ha [2] of the same compound?
A: 0%

Q: And the pest or weed control at 1000 g/ha (Solanum nigrum (SOLNI) [3])?
A: 80%

Q: And the pest or weed control at 1000 g/ha (Setaria faberi (SETFA) [4])?
A: 0%

Q: What about the pest or weed control at 1000 g/ha [5] of the same compound?
A: 20%

Q: What about the pest or weed control at 1000 g/ha [6] of the same compound?
A: 0%

Q: And the pest or weed control at 1000 g/ha [7]?
A: 100%

Q: And the pest or weed control at 1000 g/ha [8]?
A: 60%

Q: What about the pest or weed control at 1000 g/ha (Solanum nigrum (SOLNI) [9]) of the same compound?
A: 80%

Q: And the pest or weed control at 1000 g/ha (Setaria faberi (SETFA) [10])?
A: 0%

Q: What about the pest or weed control at 1000 g/ha [11] of the same compound?
A: 70%

Q: And the pest or weed control at 1000 g/ha [12]?
A: 50%

Q: For `C=Cc1c(N)nc(-c2ccc(Cl)c(OC)c2F)nc1C(=O)O` [Compound 27-21, 4-amino-2-(4-chloro-2-fluoro-3-methoxyphenyl)-5-ethenylpyrimidine-6-carboxylic acid], which pest or weed control at 1000 g/ha [1] is on record?
A: 100%

Q: What about the pest or weed control at 1000 g/ha [2] of the same compound?
A: 100%

Q: What about the pest or weed control at 1000 g/ha (Solanum nigrum (SOLNI) [3]) of the same compound?
A: 100%

Q: And the pest or weed control at 1000 g/ha (Setaria faberi (SETFA) [4])?
A: 100%

Q: What about the pest or weed control at 1000 g/ha [5] of the same compound?
A: 100%

Q: And the pest or weed control at 1000 g/ha [6]?
A: 90%

Q: And the pest or weed control at 1000 g/ha [7]?
A: 100%

Q: And the pest or weed control at 1000 g/ha [8]?
A: 90%

Q: What about the pest or weed control at 1000 g/ha (Solanum nigrum (SOLNI) [9]) of the same compound?
A: 90%

Q: What about the pest or weed control at 1000 g/ha (Setaria faberi (SETFA) [10]) of the same compound?
A: 100%

Q: And the pest or weed control at 1000 g/ha [11]?
A: 90%

Q: And the pest or weed control at 1000 g/ha [12]?
A: 90%

Q: Which pest or weed control at 1000 g/ha [1] does the source give for `COC(=O)c1nc(-c2ccc(Cl)c(OC)c2F)nc(N)c1C` [Compound 27-41] here?
A: 50%

Q: And the pest or weed control at 1000 g/ha [2]?
A: 20%

Q: What about the pest or weed control at 1000 g/ha (Solanum nigrum (SOLNI) [3]) of the same compound?
A: 80%

Q: And the pest or weed control at 1000 g/ha (Setaria faberi (SETFA) [4])?
A: 10%

Q: And the pest or weed control at 1000 g/ha [5]?
A: 90%

Q: What about the pest or weed control at 1000 g/ha [6] of the same compound?
A: 30%

Q: What about the pest or weed control at 1000 g/ha [7] of the same compound?
A: 100%

Q: What about the pest or weed control at 1000 g/ha [8] of the same compound?
A: 50%

Q: And the pest or weed control at 1000 g/ha (Solanum nigrum (SOLNI) [9])?
A: 80%

Q: What about the pest or weed control at 1000 g/ha (Setaria faberi (SETFA) [10]) of the same compound?
A: 80%

Q: What about the pest or weed control at 1000 g/ha [11] of the same compound?
A: 60%

Q: And the pest or weed control at 1000 g/ha [12]?
A: 30%

Q: Which results are given for `COC(=O)c1nc(-c2ccc(Cl)c(OC)c2F)nc(N)c1C(C)=O` [Compound 27-53, 4-Amino-2-(4-chloro-2-fluoro-3-methoxy-phenyl)-6-methoxycarbonyl-5-methylcarbonyl-pyrimidine]?
A: pest or weed control at 1000 g/ha [1]: 90%; pest or weed control at 1000 g/ha [2]: 20%; pest or weed control at 1000 g/ha (Solanum nigrum (SOLNI) [3]): 100%; pest or weed control at 1000 g/ha (Setaria faberi (SETFA) [4]): 10%; pest or weed control at 1000 g/ha [5]: 100%; pest or weed control at 1000 g/ha [6]: 20%; pest or weed control at 1000 g/ha [7]: 100%; pest or weed control at 1000 g/ha [8]: 30%; pest or weed control at 1000 g/ha (Solanum nigrum (SOLNI) [9]): 90%; pest or weed control at 1000 g/ha (Setaria faberi (SETFA) [10]): 40%; pest or weed control at 1000 g/ha [11]: 60%; pest or weed control at 1000 g/ha [12]: 30%
